In one test the target is T1, GRK6 (Homo sapiens, UniProt P43250).
T1 construct: endogenous in cells
The test is described as follows: Kinobeads two-dose competition binding: GRK6. The following applies: target GRK6.

The next test deals with ADK. The experiment in a line: Kinobeads competition binding: ADK.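 Further: selectivity score: engagement of this protein divided by summed engagement of all targets.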 More on the design: species or system human. Particulars: target ADK.
The next test concerns the target T2, BMPR1B (Homo sapiens, UniProt O00238).
T2 construct: endogenous in cells
The experiment in a line: Kinobeads competition binding: BMPR1B.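 Further: selectivity score: engagement of this protein divided by summed engagement of all targets.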 The following applies: target BMPR1B.

The next test deals with T3, CAMKK2 (Homo sapiens, UniProt Q96RR4).
T3 construct: endogenous in cells
T3 sequence (Q96RR4 whole entry): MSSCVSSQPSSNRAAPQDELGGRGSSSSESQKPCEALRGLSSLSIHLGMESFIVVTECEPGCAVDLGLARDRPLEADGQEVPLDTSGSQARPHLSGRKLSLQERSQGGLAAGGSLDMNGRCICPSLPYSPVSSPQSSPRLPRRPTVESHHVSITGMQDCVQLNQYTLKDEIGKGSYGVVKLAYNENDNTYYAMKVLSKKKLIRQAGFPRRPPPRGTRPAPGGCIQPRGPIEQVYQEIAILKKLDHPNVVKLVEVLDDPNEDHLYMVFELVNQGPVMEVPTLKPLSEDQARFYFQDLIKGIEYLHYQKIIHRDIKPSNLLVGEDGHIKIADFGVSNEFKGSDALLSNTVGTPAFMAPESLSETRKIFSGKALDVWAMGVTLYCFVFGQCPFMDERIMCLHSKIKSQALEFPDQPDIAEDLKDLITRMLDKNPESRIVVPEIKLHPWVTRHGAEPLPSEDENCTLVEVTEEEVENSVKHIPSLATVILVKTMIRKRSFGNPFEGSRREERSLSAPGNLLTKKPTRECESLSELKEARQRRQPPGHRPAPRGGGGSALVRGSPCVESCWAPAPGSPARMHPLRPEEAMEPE
The test is described as follows: Kinobeads competition binding: CAMKK2. Particulars: target CAMKK2. An excerpt:
Supplement 41589_2023_1459_MOESM4_ESM.xlsx, sheet "CATDS matrix" | column: CAMKK2

For the next test, the target named is T4, CDKL5 (Homo sapiens, UniProt O76039).
T4 construct: endogenous in cells
T4 sequence (O76039 1-960): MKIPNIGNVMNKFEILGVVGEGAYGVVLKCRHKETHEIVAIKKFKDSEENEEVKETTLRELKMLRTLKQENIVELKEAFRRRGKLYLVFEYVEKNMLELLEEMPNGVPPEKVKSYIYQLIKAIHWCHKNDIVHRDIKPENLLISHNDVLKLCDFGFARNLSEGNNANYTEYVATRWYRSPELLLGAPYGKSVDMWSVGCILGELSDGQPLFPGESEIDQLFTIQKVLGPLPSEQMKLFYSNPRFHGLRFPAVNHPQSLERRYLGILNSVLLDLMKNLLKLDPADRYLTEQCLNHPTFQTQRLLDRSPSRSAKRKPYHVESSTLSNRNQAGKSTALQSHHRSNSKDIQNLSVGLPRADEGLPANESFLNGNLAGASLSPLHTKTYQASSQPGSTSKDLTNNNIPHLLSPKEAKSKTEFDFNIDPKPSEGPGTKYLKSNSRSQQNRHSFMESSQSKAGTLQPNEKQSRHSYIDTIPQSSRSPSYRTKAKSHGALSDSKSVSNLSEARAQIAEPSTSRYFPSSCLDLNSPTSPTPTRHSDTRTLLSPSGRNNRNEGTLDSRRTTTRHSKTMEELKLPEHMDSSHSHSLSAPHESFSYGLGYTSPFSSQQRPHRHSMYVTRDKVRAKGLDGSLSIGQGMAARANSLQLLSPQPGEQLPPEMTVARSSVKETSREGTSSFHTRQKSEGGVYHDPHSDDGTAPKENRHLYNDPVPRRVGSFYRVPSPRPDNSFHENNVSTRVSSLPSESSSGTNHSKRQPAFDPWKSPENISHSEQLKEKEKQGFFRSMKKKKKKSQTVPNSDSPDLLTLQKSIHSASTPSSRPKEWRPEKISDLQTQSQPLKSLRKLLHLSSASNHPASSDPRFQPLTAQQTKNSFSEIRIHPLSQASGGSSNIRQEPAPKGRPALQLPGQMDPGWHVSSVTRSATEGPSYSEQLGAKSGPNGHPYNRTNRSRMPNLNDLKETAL
The experiment in a line: Kinobeads competition binding: CDKL5. Particulars: target CDKL5. An excerpt:
Supplement 41589_2023_1459_MOESM4_ESM.xlsx, sheet "CATDS matrix" | column: CDKL5

The next test has as its target T5, CSNK1E (Homo sapiens, UniProt P49674).
T5 construct: endogenous in cells
The experiment in a line: Kinobeads competition binding: CSNK1E. Particulars: target CSNK1E.

A further test has as its system DCK. The test is described as follows: Kinobeads competition binding: DCK.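 Further: share of total target engagement due to this protein at one drug concentration.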 More on the design: species or system human. The following applies: target DCK.
Another test deals with T6, FES (Homo sapiens, UniProt P07332).
T6 construct: endogenous in cells
T6 sequence (P07332 whole entry): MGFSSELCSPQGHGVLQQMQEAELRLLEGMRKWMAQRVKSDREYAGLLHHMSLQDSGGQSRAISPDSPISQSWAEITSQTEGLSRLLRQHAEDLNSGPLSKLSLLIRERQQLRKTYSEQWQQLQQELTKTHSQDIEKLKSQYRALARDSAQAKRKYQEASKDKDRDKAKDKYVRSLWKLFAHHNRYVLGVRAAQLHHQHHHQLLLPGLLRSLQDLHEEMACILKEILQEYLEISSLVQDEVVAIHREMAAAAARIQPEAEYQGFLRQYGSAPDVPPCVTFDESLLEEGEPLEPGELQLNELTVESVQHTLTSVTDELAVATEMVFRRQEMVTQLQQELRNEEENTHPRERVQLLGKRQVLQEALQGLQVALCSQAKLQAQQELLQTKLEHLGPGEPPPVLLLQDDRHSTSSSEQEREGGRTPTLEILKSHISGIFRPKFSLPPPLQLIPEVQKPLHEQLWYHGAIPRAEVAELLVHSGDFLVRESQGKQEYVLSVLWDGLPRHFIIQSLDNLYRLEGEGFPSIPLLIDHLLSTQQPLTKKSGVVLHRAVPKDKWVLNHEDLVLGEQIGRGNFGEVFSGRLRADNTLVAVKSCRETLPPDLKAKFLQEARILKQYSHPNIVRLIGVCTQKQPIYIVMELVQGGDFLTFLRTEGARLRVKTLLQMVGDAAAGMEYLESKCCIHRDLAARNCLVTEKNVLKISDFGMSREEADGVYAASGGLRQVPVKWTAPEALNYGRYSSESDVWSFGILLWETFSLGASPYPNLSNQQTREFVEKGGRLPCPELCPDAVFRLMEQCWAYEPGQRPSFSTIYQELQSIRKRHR
The experiment in a line: Kinobeads competition binding: FES.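 Further: selectivity score: engagement of this protein divided by summed engagement of all targets.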 Particulars: target FES. The text has this:
Supplement 41589_2023_1459_MOESM4_ESM.xlsx, sheet "CATDS matrix" | column: FES

Another test deals with GSPT1;GSPT2. The experiment in a line: Kinobeads competition binding: GSPT1;GSPT2. The following applies: target GSPT1;GSPT2. The arrangement: species or system human.
A further test deals with ICK. The experiment in a line: Kinobeads competition binding: ICK. The arrangement: species or system human. Particulars: target ICK.
The subject of the next test is MAP3K3. The experiment in a line: Kinobeads competition binding: MAP3K3. Particulars: target MAP3K3. More on the design: species or system human.
The next test deals with MAP4K1. The test is described as follows: Kinobeads competition binding: MAP4K1. The following applies: target MAP4K1. The arrangement: species or system human.
Another test deals with MAP4K5. The experiment in a line: Kinobeads competition binding: MAP4K5. The following applies: target MAP4K5. More on the design: species or system human.
A further test has as its target T7, MAPK14 (Homo sapiens, UniProt Q16539).
T7 construct: endogenous in cells
The test is described as follows: Kinobeads competition binding: MAPK14. Particulars: target MAPK14.

Another test relates to MARK4. The test is described as follows: Kinobeads competition binding: MARK4. More on the design: species or system human. Particulars: target MARK4.
The target of a further test is T8, NUAK2 (Homo sapiens, UniProt Q9H093).
T8 construct: a mixture of lysates from five cancer cell lines; endogenous in cells
T8 sequence (Q9H093 1-628): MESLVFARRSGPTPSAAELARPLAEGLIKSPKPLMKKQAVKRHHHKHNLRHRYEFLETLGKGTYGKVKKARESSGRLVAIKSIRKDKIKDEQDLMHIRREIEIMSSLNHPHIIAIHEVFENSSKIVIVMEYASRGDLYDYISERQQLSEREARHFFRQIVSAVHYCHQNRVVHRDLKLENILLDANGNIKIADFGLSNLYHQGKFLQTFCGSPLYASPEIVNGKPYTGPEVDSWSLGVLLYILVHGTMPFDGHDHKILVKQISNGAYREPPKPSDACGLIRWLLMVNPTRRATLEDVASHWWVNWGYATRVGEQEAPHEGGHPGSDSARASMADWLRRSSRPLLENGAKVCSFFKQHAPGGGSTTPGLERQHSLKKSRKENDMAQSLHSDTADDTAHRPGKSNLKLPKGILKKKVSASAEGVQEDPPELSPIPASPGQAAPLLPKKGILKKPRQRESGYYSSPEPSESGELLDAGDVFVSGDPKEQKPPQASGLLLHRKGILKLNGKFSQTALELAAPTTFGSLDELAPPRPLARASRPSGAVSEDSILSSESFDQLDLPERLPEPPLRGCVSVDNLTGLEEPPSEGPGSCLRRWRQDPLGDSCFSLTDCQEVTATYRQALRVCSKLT
The test is described as follows: Kinobeads competition binding: NUAK2. The following applies: target NUAK2. An excerpt: Supplement 41589_2023_1459_MOESM4_ESM.xlsx, sheet "CATDS matrix" | column: NUAK2

The target of a further test is T9, PDGFRB (Homo sapiens, UniProt P09619).
T9 construct: a mixture of lysates from five cancer cell lines; endogenous in cells
T9 sequence (P09619 33-1106): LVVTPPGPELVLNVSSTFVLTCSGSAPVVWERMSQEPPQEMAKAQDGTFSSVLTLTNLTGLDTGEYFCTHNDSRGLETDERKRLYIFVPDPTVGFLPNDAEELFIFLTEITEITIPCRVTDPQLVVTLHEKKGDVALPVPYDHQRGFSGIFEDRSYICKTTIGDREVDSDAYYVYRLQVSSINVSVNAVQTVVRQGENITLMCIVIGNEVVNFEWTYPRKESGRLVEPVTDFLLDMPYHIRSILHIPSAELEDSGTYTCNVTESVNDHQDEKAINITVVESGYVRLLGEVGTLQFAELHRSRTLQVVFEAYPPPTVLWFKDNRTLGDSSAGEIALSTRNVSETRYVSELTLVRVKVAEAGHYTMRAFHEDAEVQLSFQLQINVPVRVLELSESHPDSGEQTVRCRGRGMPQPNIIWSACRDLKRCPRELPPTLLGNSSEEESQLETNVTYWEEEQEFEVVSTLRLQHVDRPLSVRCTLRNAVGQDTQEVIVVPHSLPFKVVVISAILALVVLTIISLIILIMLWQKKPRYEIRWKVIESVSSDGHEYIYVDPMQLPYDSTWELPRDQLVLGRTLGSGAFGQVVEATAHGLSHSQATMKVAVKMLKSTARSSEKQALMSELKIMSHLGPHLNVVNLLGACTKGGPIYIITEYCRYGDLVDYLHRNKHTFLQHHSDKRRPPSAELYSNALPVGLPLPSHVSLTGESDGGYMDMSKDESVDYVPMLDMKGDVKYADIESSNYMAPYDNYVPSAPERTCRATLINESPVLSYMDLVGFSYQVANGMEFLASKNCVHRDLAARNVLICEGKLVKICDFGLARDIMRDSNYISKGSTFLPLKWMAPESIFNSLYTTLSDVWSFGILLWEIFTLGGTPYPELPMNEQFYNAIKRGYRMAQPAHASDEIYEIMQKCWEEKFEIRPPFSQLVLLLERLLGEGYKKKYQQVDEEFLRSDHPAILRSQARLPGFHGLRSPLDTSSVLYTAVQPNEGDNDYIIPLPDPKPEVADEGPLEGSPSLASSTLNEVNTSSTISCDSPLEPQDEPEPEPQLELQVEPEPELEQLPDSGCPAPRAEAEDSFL
The experiment in a line: Kinobeads competition binding: PDGFRB.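 Further: share of total target engagement due to this protein at one drug concentration.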 Particulars: target PDGFRB. The text has this:
Supplement 41589_2023_1459_MOESM4_ESM.xlsx, sheet "CATDS matrix" | column: PDGFRB

A further test has as its target ADCK3 (Homo sapiens, UniProt Q8NI60). The experiment in a line: Kinobeads competition binding: ADCK3. More on the design: endogenous in cells. The following applies: target ADCK3.

T7 sequence (Q16539 whole entry): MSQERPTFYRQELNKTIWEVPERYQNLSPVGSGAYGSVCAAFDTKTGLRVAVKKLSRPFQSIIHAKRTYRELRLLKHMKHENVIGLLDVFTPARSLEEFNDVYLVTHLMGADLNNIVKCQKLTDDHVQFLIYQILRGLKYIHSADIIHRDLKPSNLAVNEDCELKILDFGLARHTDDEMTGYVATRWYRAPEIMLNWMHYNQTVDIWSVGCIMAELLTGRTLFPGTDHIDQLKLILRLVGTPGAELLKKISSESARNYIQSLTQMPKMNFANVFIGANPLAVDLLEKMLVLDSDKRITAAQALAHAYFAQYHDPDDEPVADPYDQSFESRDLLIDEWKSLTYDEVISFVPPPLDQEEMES
T1 sequence (P43250 whole entry): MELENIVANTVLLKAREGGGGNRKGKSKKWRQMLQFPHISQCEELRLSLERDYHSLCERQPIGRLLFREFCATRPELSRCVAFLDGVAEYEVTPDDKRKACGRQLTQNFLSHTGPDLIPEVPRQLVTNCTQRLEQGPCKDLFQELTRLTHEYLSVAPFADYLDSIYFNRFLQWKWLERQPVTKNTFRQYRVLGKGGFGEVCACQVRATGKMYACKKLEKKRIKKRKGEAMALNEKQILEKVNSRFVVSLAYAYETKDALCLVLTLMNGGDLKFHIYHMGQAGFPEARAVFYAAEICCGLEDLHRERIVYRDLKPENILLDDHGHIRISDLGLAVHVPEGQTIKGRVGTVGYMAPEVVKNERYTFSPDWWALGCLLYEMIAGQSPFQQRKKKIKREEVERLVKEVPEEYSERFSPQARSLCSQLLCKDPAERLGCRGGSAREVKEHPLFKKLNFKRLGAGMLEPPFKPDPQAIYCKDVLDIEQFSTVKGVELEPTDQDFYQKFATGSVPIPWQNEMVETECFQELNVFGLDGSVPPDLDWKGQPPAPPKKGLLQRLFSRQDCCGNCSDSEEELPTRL
T2 sequence (O00238 14-502): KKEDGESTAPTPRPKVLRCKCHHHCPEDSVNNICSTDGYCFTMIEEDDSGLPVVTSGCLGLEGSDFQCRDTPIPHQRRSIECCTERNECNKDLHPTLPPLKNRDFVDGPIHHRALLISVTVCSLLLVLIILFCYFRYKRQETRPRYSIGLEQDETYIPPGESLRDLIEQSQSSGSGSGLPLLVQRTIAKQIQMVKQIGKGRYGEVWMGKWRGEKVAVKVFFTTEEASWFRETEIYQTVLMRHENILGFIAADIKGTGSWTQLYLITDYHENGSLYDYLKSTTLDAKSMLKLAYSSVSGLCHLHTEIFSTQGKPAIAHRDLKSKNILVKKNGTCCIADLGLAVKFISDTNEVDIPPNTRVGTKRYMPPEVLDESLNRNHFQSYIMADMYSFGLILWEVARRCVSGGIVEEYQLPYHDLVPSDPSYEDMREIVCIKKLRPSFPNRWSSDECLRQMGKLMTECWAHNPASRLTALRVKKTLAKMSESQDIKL
T5 sequence (P49674 whole entry): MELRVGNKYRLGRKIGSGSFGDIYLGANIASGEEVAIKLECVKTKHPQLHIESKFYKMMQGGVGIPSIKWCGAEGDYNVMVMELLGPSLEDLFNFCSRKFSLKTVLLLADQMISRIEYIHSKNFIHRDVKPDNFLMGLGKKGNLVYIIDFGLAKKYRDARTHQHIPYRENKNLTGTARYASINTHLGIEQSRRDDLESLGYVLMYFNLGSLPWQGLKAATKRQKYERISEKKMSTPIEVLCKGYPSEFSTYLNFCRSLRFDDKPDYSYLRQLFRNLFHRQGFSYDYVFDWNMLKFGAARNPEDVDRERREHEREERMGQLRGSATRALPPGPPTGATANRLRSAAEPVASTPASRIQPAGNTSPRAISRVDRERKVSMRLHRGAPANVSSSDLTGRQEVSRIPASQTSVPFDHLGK
Chain of ADCK3 (Q8NI60 163-647): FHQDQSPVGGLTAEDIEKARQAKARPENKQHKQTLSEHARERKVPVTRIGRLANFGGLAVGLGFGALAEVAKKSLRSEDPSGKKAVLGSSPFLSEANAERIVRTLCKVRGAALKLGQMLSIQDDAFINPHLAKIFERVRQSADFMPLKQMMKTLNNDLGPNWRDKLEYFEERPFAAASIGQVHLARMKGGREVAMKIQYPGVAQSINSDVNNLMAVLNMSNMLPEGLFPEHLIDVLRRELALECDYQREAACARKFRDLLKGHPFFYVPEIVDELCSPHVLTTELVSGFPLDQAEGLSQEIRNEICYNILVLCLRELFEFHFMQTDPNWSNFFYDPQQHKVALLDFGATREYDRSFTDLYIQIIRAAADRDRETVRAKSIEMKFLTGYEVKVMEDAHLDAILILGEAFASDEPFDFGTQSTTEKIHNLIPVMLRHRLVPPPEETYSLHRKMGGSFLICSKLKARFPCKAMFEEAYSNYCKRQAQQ

With `Nc1ncnc2[nH]c(-c3ccccc3)nc12` [AH5015_KCGS], the CATDS on GRK6, with ADK, at BMPR1B, on CAMKK2, at CDKL5 and on CSNK1E was 0 each time. Besides, the CATDS in the test with DCK, on FES, with GSPT1;GSPT2, in the test on ICK, in the test with MAP3K3 and in the test with MAP4K1 was 0 throughout. For the same compound, the CATDS with MAP4K5, on MAPK14, in the test on MARK4, at NUAK2, at PDGFRB and on ADCK3 was 0 in each case.

Take `CCN1CCN(Cc2ccc(Nc3ncc(F)c(-c4cc(F)c5nc(C)n(C(C)C)c5c4)n3)nc2)CC1` [Abemaciclib]: the CATDS on GRK6 came to 0; in the test on ADK, 0; at BMPR1B it was 0; on CAMKK2 it was 0; at CDKL5 it was 0.6907; in the test on DCK it was 0. The CATDS on FES, with GSPT1;GSPT2, in the test on ICK, with MAP3K3, in the test with MAP4K1 and with MAP4K5 was 0 in each case. The CATDS on MAPK14, in the test on MARK4, at NUAK2, at PDGFRB and on ADCK3 was 0 in each case.

As for `CN(C)C/C=C/C(=O)Nc1cc2c(Nc3ccc(F)c(Cl)c3)ncnc2cc1O[C@H]1CCOC1` [Afatinib], the CATDS on GRK6, with ADK, at CAMKK2, on CDKL5, at CSNK1E and in the test on DCK was 0 throughout. Moreover, the CATDS on FES, on NUAK2 and at PDGFRB was 0 each time.

In the case of `CCc1cc2c(cc1N1CCC(N3CCOCC3)CC1)C(C)(C)c1[nH]c3cc(C#N)ccc3c1C2=O` [Alectinib], the CATDS on GRK6, in the test with ADK, at BMPR1B, on CAMKK2, at CDKL5 and at CSNK1E was 0 each time. Moreover, the CATDS in the test with DCK, at FES, in the test with GSPT1;GSPT2, with ICK, with MAP3K3 and in the test with MAP4K1 was 0 in each case. Also, the CATDS in the test on MAP4K5, on MAPK14, in the test with MARK4, on NUAK2, on PDGFRB and on ADCK3 was 0 each time.

For `N#CC1(c2ccc(NC(=O)c3cccnc3NCc3ccncc3)cc2)CCCC1` [Apatinib], the CATDS at GRK6, with ADK, at BMPR1B, on CAMKK2, on CDKL5 and on CSNK1E was 0 each time. The CATDS in the test on DCK, at FES, in the test on GSPT1;GSPT2, with ICK, in the test on MAP3K3 and in the test with MAP4K1 was 0 in each case. For the same compound, the CATDS in the test with MAP4K5, at MAPK14, in the test with MARK4, on NUAK2, at PDGFRB and on ADCK3 was 0 in each case.

(Values after article PMC11062922 (Nature Chemical Biology, 2023).)
